Source: patent publication US10227350B2 (Gilead Sciences, Inc., priority 2016, dated 2019)

What follows are compounds tested against PI3Kβ (Homo sapiens (Human), UniProt P42338) (assay: TR-FRET enzymatic activity assay, PI3Kβ). Details: 2× Km ATP, 2 μM PIP2, 30 minutes at 25° C., read-out: IC50-PIP-Beta.
Assay type: biochemical
Method: The compounds of formula (I) were characterized for their enzymatic activity against the PI3K isoforms. The activities were measured using a time-resolved fluorescence resonance energy transfer (TR-FRET) assay. TR-FRET monitored the formation of 3,4,5-inositol triphosphate molecule that competed with fluorescently labeled PIPS for binding to the GRP-1 pleckstrin homology domain protein.
Class I PI3K isoforms were expressed and purified as heterodimeric recombinant proteins. All assay reagents and buffers for the TR-FRET assay were purchased from Millipore. […] The compounds were added to the assay solution and incubated for 30 minutes at 25° C.

PI3Kβ, sequence (P42338 whole entry): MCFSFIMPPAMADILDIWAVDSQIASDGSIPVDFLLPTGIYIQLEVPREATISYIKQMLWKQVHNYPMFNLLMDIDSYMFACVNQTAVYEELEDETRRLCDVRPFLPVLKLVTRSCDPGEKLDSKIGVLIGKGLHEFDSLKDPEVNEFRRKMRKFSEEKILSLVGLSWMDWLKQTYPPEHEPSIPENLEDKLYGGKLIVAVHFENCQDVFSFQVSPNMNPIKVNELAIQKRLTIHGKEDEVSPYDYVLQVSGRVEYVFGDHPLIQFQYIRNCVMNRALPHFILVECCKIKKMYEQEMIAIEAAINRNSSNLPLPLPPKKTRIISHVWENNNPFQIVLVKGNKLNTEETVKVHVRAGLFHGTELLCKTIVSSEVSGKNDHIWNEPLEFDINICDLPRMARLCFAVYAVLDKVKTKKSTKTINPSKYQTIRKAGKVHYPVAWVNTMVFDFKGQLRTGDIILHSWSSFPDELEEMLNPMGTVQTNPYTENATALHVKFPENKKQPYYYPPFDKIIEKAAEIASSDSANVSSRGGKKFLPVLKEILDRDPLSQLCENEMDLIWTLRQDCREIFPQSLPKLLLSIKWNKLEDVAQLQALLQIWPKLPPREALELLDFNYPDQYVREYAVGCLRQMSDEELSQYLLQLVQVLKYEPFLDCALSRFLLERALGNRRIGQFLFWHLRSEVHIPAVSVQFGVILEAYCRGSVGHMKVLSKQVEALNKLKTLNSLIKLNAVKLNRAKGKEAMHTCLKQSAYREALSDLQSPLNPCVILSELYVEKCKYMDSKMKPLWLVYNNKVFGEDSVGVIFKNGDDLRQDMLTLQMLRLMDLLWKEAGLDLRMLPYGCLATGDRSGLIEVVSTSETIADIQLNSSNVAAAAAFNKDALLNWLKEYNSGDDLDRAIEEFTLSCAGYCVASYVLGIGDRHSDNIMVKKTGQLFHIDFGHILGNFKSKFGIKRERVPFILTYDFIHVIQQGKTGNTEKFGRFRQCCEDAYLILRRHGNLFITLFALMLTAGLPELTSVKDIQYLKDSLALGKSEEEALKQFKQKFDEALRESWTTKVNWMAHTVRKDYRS
PI3Kβ, sequence (P27986 whole entry partner): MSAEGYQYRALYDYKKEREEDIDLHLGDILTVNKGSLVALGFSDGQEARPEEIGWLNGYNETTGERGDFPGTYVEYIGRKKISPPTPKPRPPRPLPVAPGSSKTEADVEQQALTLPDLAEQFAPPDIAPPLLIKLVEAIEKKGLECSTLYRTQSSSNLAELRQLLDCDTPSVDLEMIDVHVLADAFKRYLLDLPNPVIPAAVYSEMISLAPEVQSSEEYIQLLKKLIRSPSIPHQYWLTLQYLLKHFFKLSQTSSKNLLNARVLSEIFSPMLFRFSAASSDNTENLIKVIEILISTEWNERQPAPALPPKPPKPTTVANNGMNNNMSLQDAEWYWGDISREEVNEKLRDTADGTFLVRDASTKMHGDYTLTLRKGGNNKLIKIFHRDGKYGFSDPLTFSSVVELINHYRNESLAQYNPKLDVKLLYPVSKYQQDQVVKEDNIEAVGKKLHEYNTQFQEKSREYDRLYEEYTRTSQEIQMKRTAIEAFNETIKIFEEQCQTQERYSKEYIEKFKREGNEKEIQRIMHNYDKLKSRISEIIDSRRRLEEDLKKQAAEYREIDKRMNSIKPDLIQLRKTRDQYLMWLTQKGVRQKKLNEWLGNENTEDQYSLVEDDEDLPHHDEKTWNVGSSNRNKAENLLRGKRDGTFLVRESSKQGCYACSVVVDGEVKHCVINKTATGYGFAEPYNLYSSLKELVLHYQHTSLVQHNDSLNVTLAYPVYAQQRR

Structure (SMILES)	IC50 [nM]
Cc1nc2c(C(N)=O)cc(-c3ccnc(C#N)c3)cc2n1-c1ccnc2c(F)ccc(F)c12 [Example 16, 6-(2-cyanopyridin-4-yl)-1-(5,8-difluoroquinolin-4-yl)-2-methylbenzimidazole-4-carboxamide]	51
Nc1cc(-c2cc(-c3nnc[nH]3)c3nc(C4CC4)n(-c4ccnc5c(Cl)cccc45)c3c2)ccn1 [Example 74, 4-[3-(8-chloroquinolin-4-yl)-2-cyclopropyl-7-(4H-1,2,4-triazol-3-yl)benzimidazol-5-yl]pyridin-2-amine]	29
Cc1nc2c(C(N)=O)cc(-c3ccncc3)cc2n1-c1ccnc2c(F)ccc(F)c12 [Example 6, 1-(5,8-difluoroquinolin-4-yl)-2-methyl-6-pyridin-4-ylbenzimidazole-4-carboxamide]	36
Clc1cccc2c(-n3c(C4COC4)nc4c(-c5nnc[nH]5)cc(-c5ccncc5)cc43)ccnc12 [Example 36, 8-chloro-4-[2-(oxetan-3-yl)-6-pyridin-4-yl-4-(4H-1,2,4-triazol-3-yl)benzimidazol-1-yl]quinoline]	250
Cc1nc2c(C(N)=O)cc(-c3ccncc3)cc2n1-c1ccnc2cccc(F)c12 [Example 8, 1-(5-fluoroquinolin-4-yl)-2-methyl-6-pyridin-4-ylbenzimidazole-4-carboxamide]	82
Cc1nnc(-c2cc(-c3ccnc(N)c3)cc3c2nc(C(C)C)n3-c2ccnc3c(Cl)ccc(F)c23)[nH]1 [Example 66, 4-[3-(8-chloro-5-fluoroquinolin-4-yl)-7-(5-methyl-4H-1,2,4-triazol-3-yl)-2-propan-2-ylbenzimidazol-5-yl]pyridin-2-amine]	140
Cc1nc2c(-c3nnc[nH]3)cc(-c3ccnc(N)c3F)cc2n1-c1c(Cl)cnc2c(F)cccc12 (single isomer, unassigned) [Example 108, 4-[3-(3-chloro-8-fluoroquinolin-4-yl)-2-methyl-7-(4H-1,2,4-triazol-3-yl)benzimidazol-5-yl]-3-fluoropyridin-2-amine]	810
Cc1cc(-n2c(C)nc3c(C(N)=O)cc(-c4ccncc4)cc32)c2ccccc2n1 [Example 10, 2-methyl-1-(2-methylquinolin-4-yl)-6-pyridin-4-ylbenzimidazole-4-carboxamide]	1600
Fc1nccc(-c2ccc3ncn(-c4cc(N5CCNCC5)nc5ccccc45)c3c2)c1F [Example 165, 4-(6-(2,3-difluoropyridin-4-yl)-1H-benzo[d]imidazol-1-yl)-2-(piperazin-1-yl)quinoline]	480
CCc1nc2c(-c3nnc[nH]3)cc(-c3ccnc(N)c3)cc2n1-c1ccnc2c(F)ccc(F)c12 [Example 70, 4-[3-(5,8-difluoroquinolin-4-yl)-2-ethyl-7-(4H-1,2,4-triazol-3-yl)benzimidazol-5-yl]pyridin-2-amine]	13
Cc1nc2c(-c3nnc[nH]3)cc(-c3ccnc(C(F)F)c3)cc2n1-c1ccnc2c(F)ccc(F)c12 [Example 43, 4-(6-(2-(difluoromethyl)pyridin-4-yl)-2-methyl-4-(4H-1,2,4-triazol-3-yl)-1H-benzo[d]imidazol-1-yl)-5,8-difluoroquinoline]	30
Cc1nc2c(-c3nnc[nH]3)cc(-c3ccnc(C#N)c3)cc2n1-c1ccnc2cccc(Cl)c12 (single isomer, unassigned) [Example 126, 4-(1-(5-chloroquinolin-4-yl)-2-methyl-4-(4H-1,2,4-triazol-3-yl)-1H-benzo[d]imidazol-6-yl)picolinonitrile]	780
Cc1nc2c(C(=O)O)cc(-c3ncnc4[nH]cnc34)cc2n1-c1ccnc2c(Cl)cccc12 [Example 3]	2800

More lines, now with the values ahead:

IC50 [nM]	Structure (SMILES)
5	Clc1cccc2c(-n3cnc4c(-c5ncn[nH]5)cc(-c5ccncc5)cc43)ccnc12 [Example 27, 8-chloro-4-[6-pyridin-4-yl-4-(1H-1,2,4-triazol-5-yl)benzimidazol-1-yl]quinoline]
10	Cc1nc2c(-c3nnc[nH]3)cc(-c3ccncc3F)cc2n1-c1ccnc2c(Cl)cccc12 (single isomer, unassigned) [Example 137, 8-chloro-4-(6-(3-fluoropyridin-4-yl)-2-methyl-4-(4H-1,2,4-triazol-3-yl)-1H-benzo[d]imidazol-1-yl)quinoline]
4	Cc1nc2c(-c3nnc[nH]3)cc(-c3ccnc(C#N)c3)cc2n1-c1ccnc2c(Cl)ccc(F)c12 (single isomer, unassigned) [Example 135, 4-(1-(8-chloro-5-fluoroquinolin-4-yl)-2-methyl-4-(4H-1,2,4-triazol-3-yl)-1H-benzo[d]imidazol-6-yl)picolinonitrile]
3	Cc1nc2c(-c3nnc[nH]3)cc(-c3ccnc(C#N)c3)cc2n1-c1ccnc2c(Cl)cccc12 (single isomer, unassigned) [Example 129, 4-(1-(8-chloroquinolin-4-yl)-2-methyl-4-(4H-1,2,4-triazol-3-yl)-1H-benzo[d]imidazol-6-yl)picolinonitrile]
5	Cc1nc2c(-c3nnc[nH]3)cc(-c3ccnc(F)c3)cc2n1-c1ccnc2c(F)ccc(F)c12 [Example 159, 5,8-difluoro-4-(6-(2-fluoropyridin-4-yl)-2-methyl-4-(4H-1,2,4-triazol-3-yl)-1H-benzo[d]imidazol-1-yl)quinoline]
13	Cc1nnc(-c2cc(-c3ccnc(C#N)c3)cc3c2nc(C)n3-c2ccnc3c(Cl)ccc(F)c23)[nH]1 [Example 150, 4-(1-(8-chloro-5-fluoroquinolin-4-yl)-2-methyl-4-(5-methyl-4H-1,2,4-triazol-3-yl)-1H-benzo[d]imidazol-6-yl)picolinonitrile]
9	Cc1nc2c(-c3nnc[nH]3)cc(-c3ccnc(N)n3)cc2n1-c1ccnc2c(Cl)cccc12 [Example 56, 4-[3-(8-chloroquinolin-4-yl)-2-methyl-7-(4H-1,2,4-triazol-3-yl)benzimidazol-5-yl]pyrimidin-2-amine]
4	Cc1nc2c(-c3nnc[nH]3)cc(-c3ccncc3)cc2n1-c1ccnc2c(Cl)ccc(F)c12 [Example 37, 8-chloro-5-fluoro-4-[2-methyl-6-pyridin-4-yl-4-(4H-1,2,4-triazol-3-yl)benzimidazol-1-yl]quinoline]
4	Cc1nc2c(-c3nnc[nH]3)cc(-c3ccnc(C#N)c3)cc2n1-c1ccnc2c(Cl)cccc12 [Example 149, 4-(1-(8-chloroquinolin-4-yl)-2-methyl-4-(4H-1,2,4-triazol-3-yl)-1H-benzo[d]imidazol-6-yl)picolinonitrile]
6	Cc1nnc(-c2cc(-c3ccnc(N)c3F)cc3c2nc(C)n3-c2ccnc3c(Cl)ccc(F)c23)[nH]1 [Example 98, 4-[3-(8-chloro-5-fluoroquinolin-4-yl)-2-methyl-7-(5-methyl-4H-1,2,4-triazol-3-yl)benzimidazol-5-yl]-3-fluoropyridin-2-amine]
12	Cc1nc2c(C(N)=O)cc(-c3ccnc(N)n3)cc2n1-c1ccnc2c(Cl)cccc12 [Example 19, 6-(2-aminopyrimidin-4-yl)-1-(8-chloroquinolin-4-yl)-2-methylbenzimidazole-4-carboxamide]
4	Cc1nc2c(-c3nnc[nH]3)cc(-c3ccnc(C#N)c3)cc2n1-c1ccnc2c(F)ccc(F)c12 [Example 44, 4-[3-(5,8-difluoroquinolin-4-yl)-2-methyl-7-(4H-1,2,4-triazol-3-yl)benzimidazol-5-yl]pyridine-2-carbonitrile]
